The source of these data is patent publication US10669272B2, “Substituted naphthyridinone compounds useful as T cell activators” (BRISTOL-MYERS SQUIBB COMPANY, priority 2018, dated 2020).

One assay deals with Human venous whole blood. In words: Human whole blood IFN-γ assay.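 Also: blood from healthy donors exposed to compound for 1 h before stimulation with anti-CD3 and anti-CD28 at 1 µg/mL each, IFN-γ quantified in supernatant by AlphaLISA.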 The class given is cell-based.
The target in a further assay is T1, human DGKζ (Homo sapiens, UniProt Q13574).
T1 construct: TVMV protease cleavage site (C); Hexa-His (C); made in house; host or cells: Sf9 insect cells (baculovirus, Bac-to-Bac)
T1 sequence (Q13574 with tags, fused parts or gaps isoform Q13574-4): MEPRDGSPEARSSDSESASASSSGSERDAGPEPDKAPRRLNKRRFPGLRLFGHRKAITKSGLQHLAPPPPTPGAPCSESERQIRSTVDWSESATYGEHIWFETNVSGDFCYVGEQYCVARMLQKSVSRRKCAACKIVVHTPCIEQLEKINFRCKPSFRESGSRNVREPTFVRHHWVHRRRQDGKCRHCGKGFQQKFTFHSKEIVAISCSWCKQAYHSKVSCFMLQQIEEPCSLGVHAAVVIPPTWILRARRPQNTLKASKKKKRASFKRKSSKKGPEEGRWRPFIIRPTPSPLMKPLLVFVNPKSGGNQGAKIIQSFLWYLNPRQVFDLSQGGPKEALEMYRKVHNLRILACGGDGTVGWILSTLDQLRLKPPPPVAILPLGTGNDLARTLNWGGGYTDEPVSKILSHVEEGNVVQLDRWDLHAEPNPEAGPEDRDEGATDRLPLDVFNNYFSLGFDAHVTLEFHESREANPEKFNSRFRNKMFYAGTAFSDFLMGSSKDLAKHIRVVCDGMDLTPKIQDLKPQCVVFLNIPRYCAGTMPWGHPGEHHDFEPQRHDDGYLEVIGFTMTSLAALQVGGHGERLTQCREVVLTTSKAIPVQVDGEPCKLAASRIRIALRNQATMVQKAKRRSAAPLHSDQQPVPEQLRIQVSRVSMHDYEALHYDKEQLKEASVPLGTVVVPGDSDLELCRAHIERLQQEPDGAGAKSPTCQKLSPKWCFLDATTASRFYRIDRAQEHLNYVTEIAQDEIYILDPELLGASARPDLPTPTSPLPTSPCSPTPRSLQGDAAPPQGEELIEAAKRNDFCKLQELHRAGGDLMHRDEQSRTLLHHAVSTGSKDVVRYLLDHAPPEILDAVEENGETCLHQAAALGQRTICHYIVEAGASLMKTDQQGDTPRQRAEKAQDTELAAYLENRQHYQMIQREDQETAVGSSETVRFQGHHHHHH
In words: DGKζ LIPGLO assay (extruded liposome substrate), in vitro DGK inhibition. The format is biochemical. The following applies: read-out: DGKz LIPGLO IC50.

A further assay concerns the target T2, human DGKα (Homo sapiens, UniProt P23743).
T2 construct: TVMV protease cleavage site (C); Hexa-His (C); made in house; host or cells: Sf9 insect cells (baculovirus, Bac-to-Bac)
The assay is described as follows: DGKα LIPGLO assay (extruded liposome substrate), in vitro DGK inhibition. The class given is biochemical. The following applies: read-out: DGKa LIPGLO IC50.

[1] abbreviates: human whole blood; normalized to 3 μM reference compound with anti-CD3 plus anti-CD28 as 100% activation; read-out: INFg Whole Blood Normalized Agonist EC50.

Structures are written as SMILES. Where two headings read alike, the source gives them in different places.

T2 sequence (P23743 with tags, fused parts or gaps): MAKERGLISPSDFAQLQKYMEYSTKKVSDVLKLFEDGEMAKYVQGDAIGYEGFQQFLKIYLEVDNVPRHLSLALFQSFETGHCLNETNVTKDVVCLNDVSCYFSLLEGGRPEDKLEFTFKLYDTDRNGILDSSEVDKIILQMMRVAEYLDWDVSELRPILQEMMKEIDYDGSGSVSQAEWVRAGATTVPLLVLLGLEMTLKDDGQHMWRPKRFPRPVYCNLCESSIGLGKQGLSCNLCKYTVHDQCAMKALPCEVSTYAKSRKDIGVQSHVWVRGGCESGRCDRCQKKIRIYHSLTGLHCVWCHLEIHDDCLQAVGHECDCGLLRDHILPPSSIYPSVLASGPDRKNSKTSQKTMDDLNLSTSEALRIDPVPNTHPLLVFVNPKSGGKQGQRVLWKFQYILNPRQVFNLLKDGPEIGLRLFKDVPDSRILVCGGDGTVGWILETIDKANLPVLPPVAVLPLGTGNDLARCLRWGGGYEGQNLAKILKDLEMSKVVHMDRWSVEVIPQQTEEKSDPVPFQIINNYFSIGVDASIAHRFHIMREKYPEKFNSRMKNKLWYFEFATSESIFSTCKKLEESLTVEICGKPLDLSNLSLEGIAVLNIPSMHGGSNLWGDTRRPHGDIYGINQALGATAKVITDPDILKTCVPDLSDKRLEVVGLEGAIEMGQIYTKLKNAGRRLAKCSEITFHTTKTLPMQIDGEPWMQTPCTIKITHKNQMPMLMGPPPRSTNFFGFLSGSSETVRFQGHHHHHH
Method for Human venous whole blood: Human Whole Blood IFN-γ Assay
Human venous whole blood (22.5 μL per well), obtained from healthy donors, was pre-treated with compounds for one hour at 37° C. in a humidified 95% air/5% CO2 incubator. The blood was stimulated with 2.5 μL anti-human CD3 and anti-CD28 mAb at a final concentration of 1 μg/mL each for 24 hours at 37° C. IFN-γ in the supernatants was measured using AlphLISA kit (Cat # AL217).

For `CC(c1ccc(OC(F)(F)F)cc1F)N1C[C@H](C)N(c2cc(=O)n(C)c3ccc(C#N)nc23)C[C@H]1C` (single isomer, unassigned) [Example 439], the EC50 in the assay on Human venous whole blood (setting [1]) was found to be 680 nM. Besides, the IC50 at human DGKζ (liposome (LIPGLO) assay) is 0.32 µM. Turning to `C[C@@H]1CN(c2cc(=O)n(C)c3ccc(C#N)nc23)[C@@H](C)CN1C(c1ccc(F)cc1)c1nc(C2CCN(C)CC2)no1` (single isomer, unassigned) [Example 751], the EC50 in the assay with Human venous whole blood (human whole blood, anti-CD3 plus anti-CD28, 24 hours; 3 μM reference compound = 100% activation; read-out: INFg Whole Blood Normalized Agonist EC50) amounted to 4500 nM. In addition, the IC50 on human DGKζ (DGKζ liposome (LIPGLO) assay) was 17 µM.

In the case of `C[C@@H]1CN(c2c(C#N)c(=O)n(C)c3ccc(C#N)nc23)CCN1C(c1ccccc1)c1ccc(Cl)cc1` (single isomer, unassigned) [Example 887], the EC50 in the assay with Human venous whole blood (read-out: INFg Whole Blood Normalized Agonist EC50; human whole blood, anti-CD3 plus anti-CD28, 24 hours; 3 μM reference compound = 100% activation) turned out to be 1600 nM.

Turning to `CCC(c1cc(OC(F)(F)F)ccc1F)N1C[C@H](C)N(c2cc(=O)n(C)c3ccc(C#N)nc23)C[C@H]1C` (stereo partly shown) [Example 1206], the EC50 in the assay on Human venous whole blood (setting [1]) was determined as 2100 nM. The same measure, in the same setting: as for `C[C@@H]1CN(c2cc(=O)n(C)c3ccc(C#N)nc23)[C@@H](C)CN1C(c1ccccc1)c1ccc(F)cc1` (single isomer, unassigned) [Example 184], the figure is 570 nM; as for `COCc1ccc(C(C)N2C[C@H](C)N(c3cc(=O)n(C)c4ccc(C#N)nc34)C[C@H]2C)cc1` (stereo partly shown) [Example 1266], 1400 nM. For `CC(C)[C@H]1CN(C(c2ccc(F)cc2)c2ccc(F)cc2)[C@@H](C)CN1c1cc(=O)n(C)c2ccc(C#N)nc12` [Example 125, 8-((2S,5S)-4-(bis(4-fluorophenyl)methyl)-2-isopropyl-5-methylpiperazin-1-yl)-5-methyl-6-oxo-5,6-dihydro-1,5-naphthyridine-2-carbonitrile], the IC50 amounted to 240 µM at human DGKζ (liposome (LIPGLO) assay) and 36 µM at human DGKα (liposome (LIPGLO) assay).

As to `CC(c1ccc(C(=O)O)cc1)N1CCN(c2c(C#N)c(=O)n(C)c3ccc(C#N)nc23)C[C@H]1C` (stereo partly shown) [Example 973], the IC50 at human DGKζ (DGKζ liposome (LIPGLO) assay) and on human DGKα (DGKα liposome (LIPGLO) assay) was over 250 µM each time.

`CC(c1ccc(C(F)(F)F)cc1F)N1C[C@H](C)N(c2cc(=O)n(C)c3ccc(C#N)nc23)C[C@H]1C` (single isomer, unassigned) [Example 412]: the IC50 at human DGKζ (liposome (LIPGLO) assay) was determined as 13 µM; on human DGKα (liposome (LIPGLO) assay), 12 µM. Turning to `CCOC[C@@H]1CN(c2cc(=O)n(C)c3ccc(C#N)nc23)[C@@H](C)CN1C(C)c1ccc(OC(F)(F)F)cc1` (single isomer, unassigned) [Example 1398], the IC50 turned out to be 1.6 µM at human DGKζ (liposome (LIPGLO) assay) and 5.5 µM on human DGKα (liposome (LIPGLO) assay).

On to `C[C@@H]1CN(c2c(C#N)c(=O)n(C)c3ccc(C#N)nc23)[C@@H](C)CN1C(c1ccc(F)cc1)c1ccc(C(F)(F)F)cn1` (single isomer, unassigned) [Example 837], for which the half-maximal inhibitory concentration (IC50) on human DGKζ (DGKζ liposome (LIPGLO) assay) was 35 µM; on human DGKα (DGKα liposome (LIPGLO) assay), 5.7 µM. On to `CC[C@@H]1CN(c2cc(=O)n(C)c3ccc(C#N)nc23)[C@@H](C)CN1C(CC1CCCCC1)c1ccc(OC(F)(F)F)cc1` (stereo partly shown) [Example 1196], for which the IC50 on human DGKζ (liposome (LIPGLO) assay) was 0.27 µM; on human DGKα (liposome (LIPGLO) assay), 1.4 µM. Regarding `CC(c1ccc(C(=O)O)cc1)N1C[C@H](C)N(c2c(C#N)c(=O)n(C)c3ccc(C#N)nc23)C[C@H]1C` (stereo partly shown) [Example 787], the half-inhibitory concentration (IC50) at human DGKζ (DGKζ liposome (LIPGLO) assay) was determined as 83 µM; at human DGKα (DGKα liposome (LIPGLO) assay), 200 µM.

Consider `C[C@@H]1CN(c2cc(=O)n(C)c3ccc(C#N)nc23)[C@@H](C)CN1Cc1cccc2c1N(C)C(=O)CO2` [Example 635], for which the IC50 on human DGKζ (liposome (LIPGLO) assay) was 150 µM; on human DGKα (liposome (LIPGLO) assay), 8 µM.

Regarding `Cn1c(=O)cc(N2CCN(C(c3ccc(F)cc3)c3ccc(F)cc3)CC2C#N)c2nc(C#N)ccc21` (stereo not shown) [Example 145, 8-(4-(bis(4-fluorophenyl)methyl)-2-cyanopiperazin-1-yl)-5-methyl-6-oxo-5,6-dihydro-1,5-naphthyridine-2-carbonitrile], the IC50 at human DGKζ (liposome (LIPGLO) assay) amounted to 23 µM; on human DGKα (liposome (LIPGLO) assay), 9 µM. For the molecule `C[C@@H]1CN(c2c(C#N)c(=O)n(C)c3ccc(C#N)nc23)CCN1C(c1ccccc1)c1cc(F)cc(F)c1` (stereo partly shown) [Example 874], the IC50 at human DGKζ (DGKζ liposome (LIPGLO) assay) worked out at 2.2 µM; on human DGKα (DGKα liposome (LIPGLO) assay), 14 µM.
